Experimental data from patent US20080293099A1, “Lignan Glycosidase and Utilization of the Same” (priority 2004, published 2008).

Tests used:
[1] = tested on: SiGT8 recombinant protein; assay: lignan glycosidation activity assay with SiGT8 recombinant protein (HPLC analysis of the product); assay type: biochemical, Sesamum indicum; settings: crude enzyme solution expressed in Escherichia coli, UDP-glucose, 30° C. for an hour, absorption at 287 nm
Description: (§1) Escherichia coli JM109 (TOYOBO) was transformed with Escherichia coli expression vectors pSPB2637, pSPB2642, pSPB2645, pSPB2639 and pSPB2640 prepared in EXAMPLE 6, and preincubated at 37° C. overnight in LB medium supplemented with ampicillin in final concentration of 20 μg/ml. A part of the preincubation culture was added to M9 medium (10 ml) containing 50 μg/ml of ampicillin and 0.5% Casamino acid, and shake cultured to reach A600=0.6-1.0. The composition of M9 medium is as follows: 1×M9 salt, 1 mM MgSO4, 0.2% glucose and 0.001% thiamine hydrochloride. The composition of 10×M9 medium is as follows: a 500 ml aqueous solution containing 30 g of Na2HPO4, 15 g of KH2PO4, 2.5 g of NaCl and 5 g of NH4Cl. Next, IPTG (isopropyl-β-D-thiogalactopyranoside) in a final concentration of 0.5 mM was added to the culture. After further shake culture at 30° C. overnight, centrifugation was performed at 3000 rpm at 4° C. for 10 minutes to collect the cells. […]
(§2) Pinoresinol, piperitol or sesaminol was dissolved in a small quantity of DMSO and further dissolved in 70% ethanol to prepare a substrate solution (1 mg/ml). […]
(§3) The enzyme reaction was terminated by adding 100% acetonitrile (250 μl) containing 0.1% TFA (trifluoroacetic acid) to the reaction tube. […] The resulting supernatant was washed through a filter (pore size of […], 4 mm Millex-LH, Millipore) and then analyzed using high performance liquid chromatography (hereinafter HPLC). […]
Liquid chromatography (Lc-2010c (Shimadzu Corporation)) was performed using a C-30 column (Nomura Chemical, C30-UG-5, 4.6 mm×150 mm). […] Absorption was monitored at 287 nm to detect the compound contained in a sample. The spectra between 190 nm and 400 nm for each peak of the compound were measured using SPD-10AV (Shimadzu Corporation) to detect a substance having two absorption maxima (230 nm and 280 nm) characteristic of lignans. Under the conditions, authentic pinoresinol is detected at about 8.4 minutes, authentic piperitol at about 12.8 minutes and authentic sesaminol at about 13.8 minutes (FIGS. 2 and 3).

[2] = tested on: SrSiGT8 recombinant protein; assay: lignan glycosidation activity assay with purified His-SrSiGT8 recombinant protein (HPLC analysis); assay type: biochemical, Sesamum radiatum; settings: Ni column purified, dialyzed His-SrSiGT8, UDP-glucose, 30° C. for an hour
Description: About 1.4 kb DNA fragment containing the full-length SrSiGT8 was excised from pSPB2656 with BamHI/KpnI and then ligated to the BamHI/KpnI site of pQE30 vector (QIAGEN), which was an expression vector for Escherichia coli, to obtain SrSiGT8/pQE30 (pSPB2657). This pSPB2657 expresses recombinant protein (His-SrSiGT8) with His tag consisting of 6 histidine residues fused to SrSiGT8 at the N terminus.
Escherichia coli transformed with pSPB2657 was incubated as in EXAMPLE 7 to express a recombinant protein. The following experiment was all carried out on ice or at 4° C., unless otherwise indicated.
After the cells were dissolved in 5 ml of lysis buffer (20 mM sodium phosphate buffer, 30 mM imidazole, 500 mM NaCl, 5 mM β-mercaptoethanol and 100 μM APSMF) per 1 g, the cells were lysed by ultrasonication, followed by centrifugation at 4000 rpm for 10 minutes. The supernatant obtained was recovered as the crude enzyme solution.
Next, the His-SrSiGT8 recombinant protein was purified through a Ni column. Chelating Sepharose FF resin (Amersham Bioscience) was packed in the column and 0.1M NiSO4 in a volume equal to the resin was added to the resin. Subsequently, the column was washed with water in a volume twice the volume of the resin and then with 20% ethanol in a volume 3 times the volume of the resin.
Then, the column was equilibrated with a lysis buffer in a volume 5 times the volume of the resin and a sample obtained by diluting 5 mL of the crude enzyme solution described above with the lysis buffer to 10-fold was loaded on the column. After the sample naturally dropped by the gravity, the sample was washed 3 times with the lysis buffer in a volume 5 times the volume of the resin and then eluted using 5 ml of an elution buffer (20 mM sodium phosphate buffer, 500 mM imidazole, 500 mM NaCl, 5 mM β-mercaptoethanol and 100 μM APSMF) […]
To 300 μl of the dialyzed sample, 20 μl of the substrate solution (1 mg/ml) and 3 μl of 20 mM UDP-glucose were added to react at 30° C. for an hour. The reaction product was analyzed in a manner similar to EXAMPLE 8.

[3] = tested on: SaSiGT8 recombinant protein; assay: lignan glycosidation activity assay with SaSiGT8 recombinant protein (SaLGT1) (HPLC analysis); assay type: biochemical, S. alatum; settings: recombinant protein expressed in Escherichia coli as in EXAMPLE 11
Text: The fragment containing ORF of SaSiGT8 was excised from pSPB2697 with BamHI and KpnI and inserted into the BamHI and KpnI sites of Escherichia coli expression vector pQE30 to give the expression vector pSPB2698. The recombinant SaSiGT8 protein (SaLGT1) was expressed as in EXAMPLE 11 to confirm that the protein had the lignan glycosidation activity. It was also confirmed by SDS-PAGE that the recombinant SaSiGT8 protein (ca. 60 kDa) was present in the lysis supernatant of transgenic Escherichia coli expressing the SaSiGT8 gene (FIG. 9).

[4] = tested on: SiGT10 recombinant protein; assay: lignan glycosidation activity assay with SiGT10 recombinant protein (HPLC analysis of the product); assay type: biochemical, Sesamum indicum; settings: crude enzyme solution expressed in Escherichia coli, UDP-glucose, 30° C. for an hour, absorption at 287 nm
Description: as §1, with “NH4Cl.” for “NH4Cl. Next, IPTG (isopropyl-β-D-thiogalactopyranoside) in a final concentration of 0.5 mM was added to the culture. After further shake culture at 30° C. overnight, centrifugation was performed at 3000 rpm at 4° C. for 10 minutes to collect the cells.”
as §2, §3
Liquid chromatography (Lc-2010c (Shimadzu Corporation)) was performed using a C-30 column (Nomura Chemical, C30-UG-5, 4.6 mm×150 mm). […] Absorption was monitored at 287 nm to detect the compound contained in a sample. […]

Molecule	glycosidation of the lignan substrate by SiGT8 (new product peak with lignan spectrum in HPLC) [1]	glycosidation of the lignan substrate by SrSiGT8 (new product peak with lignan spectrum in HPLC) [2]	glycosidation of the lignan substrate by SaSiGT8 (monoglucoside formed, HPLC) [3]	glycosidation of the lignan substrate by SiGT10 (new product peak with lignan spectrum in HPLC) [4]
COc1cc([C@@H]2OC[C@@H]3[C@H]2CO[C@H]3c2ccc3c(c2)OCO3)ccc1O [piperitol]	peak D having the spectrum of lignan (retention time of about 7.4 minutes) was newly obtained	peak E having a new spectrum for lignan showing the retention time of about 7.4 minutes was detected	produced the respective monoglucosides	
Oc1cc2c(cc1[C@H]1OC[C@H]3[C@@H]1CO[C@@H]3c1ccc3c(c1)OCO3)OCO2 [sesaminol]	peak B having the spectrum of lignan (retention time of about 8.2 minutes) was newly obtained	peak F having a new spectrum for lignan showing the retention time of about 8.2 minutes was detected	produced the respective monoglucosides	peak C having the spectrum of lignan (retention time of about 8.2 minutes) was newly obtained
pinoresinol	peak A having the spectrum of lignan (retention time of about 4.0 minutes) was newly obtained	any peak with a spectrum for any new lignan was detected	produced the respective monoglucosides	any new product was not observed
